Data reported in patent US20150335021A1, “Cycloclavine and Derivatives Thereof for Controlling Invertebrate Pests” (BASF SE, priority 2012, published 2015).

Tests used:
[1] = tested on: antibodies against lysergic acid-bovine serum albumin conjugates; details: antibodies raised in rabbits against lysergic acid conjugates; Arens et al, Planta Medica (1980); cited from earlier work
[2] = tested on: Vetch Aphid (Megoura viciae); assay: Vetch aphid leaf disk microtiter plate test; format: in vivo; details: foliar, 120 h, leaf disks sprayed, 5 days, in comparison with untreated controls
Procedure: B.7 Vetch Aphid (Megoura viciae)
For evaluating control of vetch aphid (Megoura viciae) through contact or systemic means the test unit consisted of 24-well-microtiter plates containing broad bean leaf disks.
The compounds were formulated using a solution containing 75% v/v water and 25% v/v DMSO. Different concentrations of formulated compounds were sprayed onto the leaf disks at 2.5 μl, using a custom built micro atomizer, at two replications.
After application, the leaf disks were air-dried and 5-8 adult aphids placed on the leaf disks inside the microtiter plate wells. The aphids were then allowed to suck on the treated leaf disks and incubated at about 23±1° C. and about 50±5% relative humidity for 5 days. Aphid mortality and fecundity was then visually assessed.

[3] = tested on: Cotton Aphid (Aphis gossypi); assay: Cotton aphid spray test on infested cotton plants; format: in vivo; details: 120 h, after 5 days, in comparison with untreated controls
Text: B.1 Cotton Aphid (Aphis gossypi)
(§1) The active compounds were formulated in cyclohexanone as a 10,000 ppm solution supplied in tubes. The tubes were inserted into an automated electrostatic sprayer equipped with an atomizing nozzle and they served as stock solutions for which lower dilutions were made in 50% acetone: 50% water (v/v). A nonionic surfactant (Kinetic®) was included in the solution at a volume of 0.01% (v/v).
Cotton plants at the cotyledon stage were infested with aphids prior to treatment by placing a heavily infested leaf from the main aphid colony on top of each cotyledon. Aphids were allowed to transfer overnight to accomplish an infestation of 80-100 aphids per plant and the host leaf was removed. The infested plants were then sprayed by an automated electrostatic plant sprayer equipped with an atomizing spray nozzle. The plants were dried in the sprayer fume hood, removed from the sprayer, and then maintained in a growth room under fluorescent lighting in a 24-hr photoperiod at 25° C. and 20-40% relative humidity. Aphid mortality on the treated plants, relative to mortality on untreated control plants, was determined after 5 days.

[4] = tested on: Cowpea Aphid (aphis craccivora); assay: Cowpea aphid spray test on potted cowpea plants; format: in vivo; details: assessed after 24, 72 and 120 hours, in comparison with untreated controls
Procedure: (§2) If not otherwise specified the test solutions are prepared as follow:
(§3) The active compound is dissolved at the desired concentration in a mixture of 1:1 (vol:vol) distilled water:acteon. The test solution is prepared at the day of use and in general at concentrations of […].
B.2 Cowpea Aphid (aphis craccivora)
Potted cowpea plants colonized with approximately 100-150 aphids of various stages were sprayed after the pest population has been recorded. Population reduction was assessed after 24, 72, and 120 hours.

[5] = tested on: yellowfever mosquito larvae (Aedes aegypti); assay: Larval mosquito water treatment assay; details: 120 h
[6] = tested on: Green Peach Aphid (Myzus persicae); assay: Green peach aphid spray test on bell pepper plants; format: in vivo; details: 120 h, after 5 days, in comparison with untreated controls
Text: B.8 Green Peach Aphid (Myzus persicae)
as §1, with “are” for “were”, “is” for “was”
Bell pepper plants at the first true-leaf stage are infested prior to treatment by placing heavily infested leaves from the main colony on top of the treatment plants. Aphids are allowed to transfer overnight to accomplish an infestation of 30-50 aphids per plant and the host leaves are removed. The infested plants are then sprayed by an automated electrostatic plant sprayer equipped with an atomizing spray nozzle. The plants are dried in the sprayer fume hood, removed, and then maintained in a growth room under fluorescent lighting in a 24-hr photoperiod at about 25° C. and about 20-40% relative humidity. Aphid mortality on the treated plants, relative to mortality on untreated control plants, is determined after 5 days.

[7] = tested on: Silverleaf Whitefly (Bemisia argentifolii); assay: Silverleaf whitefly test on sprayed cotton plants; format: in vivo; details: 72 h, spray, 3 days after treatment, in comparison with untreated controls
Text: B.5 Silverleaf Whitefly (Bemisia argentifolii)
as §1, with “acetone:50%” for “acetone: 50%”, “(Kinetic( )” for “(Kinetic®)”
Cotton plants at the cotyledon stage (one plant per pot) were sprayed by an automated electrostatic plant sprayer equipped with an atomizing spray nozzle. The plants were dried in the sprayer fume hood and then removed from the sprayer. Each pot was placed into a plastic cup and about 10 to 12 whitefly adults (approximately 3-5 days old) were introduced. The insects were collected using an aspirator and a nontoxic Tygon® tubing connected to a barrier pipette tip. The tip, containing the collected insects, was then gently inserted into the soil containing the treated plant, allowing insects to crawl out of the tip to reach the foliage for feeding. Cups were covered with a reusable screened lid. […] Mortality was assessed 3 days after treatment, compared to untreated control plants.

[8] = tested on: Rice Green Leafhopper (Nephotettix virescens); assay: Rice green leafhopper test on sprayed rice seedlings; format: in vivo; details: spray, after 72 hours, in comparison with untreated controls
Procedure: B.9 Rice Green Leafhopper (Nephotettix virescens)
Rice seedlings are cleaned and washed 24 hours before spraying. The active compounds are formulated in 50:50 acetone:water (vol:vol), and 0.1% vol/vol surfactant (EL 620) is added. Potted rice seedlings are sprayed with 5 ml test solution, air dried, placed in cages and inoculated with 10 adults. Treated rice plants are kept at about 28-29° C. and relative humidity of about 50-60%. Percent mortality is recorded after 72 hours.

[9] = tested on: Diamond Back Moth (plutella xylostella); assay: Diamond back moth leaf-dip test on Chinese cabbage; format: in vivo; details: 300 ppm, recorded 24, 72 and 120 hours after treatment, in comparison with untreated controls
Procedure: as §2, §3
B.3 Diamond Back Moth (plutella xylostella)
Leaves of Chinese cabbage were dipped in test solution and air-dried. Treated leaves were placed in petri dished lined with moist filter paper. Mortality was recorded 24, 72, and 120 hours after treatment.

[10] = tested on: Striped Flea Beetle (Phylotretta striolata); assay: Striped flea beetle leaf-dip test on Chinese cabbage; format: in vivo; details: 300 ppm, 72 hours after treatment, in comparison with untreated controls
Procedure: B.10 Striped Flea Beetle (Phylotretta striolata)
The active compound is dissolved at the desired concentration in a mixture of 1:1 (vol:vol) distilled water:acetone. Add surfactant (Alkamuls® EL620) at the rate of 0.1% (vol/vol). The test solution is prepared at the day of use.
Leaves of Chinese cabbage were dipped in test solution and air-dried. Treated leaves were placed in pertri dishes lined with moist filter paper and inoculated with 20 adults. Mortality was recorded 72 hours after treatment. Feeding damage were also recorded using scale of 0-100%.

[11] = tested on: Orchid Thrips (dichromothrips corbetti); assay: Orchid thrips floral-immersion test; format: in vivo; details: 300 ppm, after 4 days, in comparison with untreated controls
Procedure: B.4 Orchid Thrips (dichromothrips corbetti)
Dichromothrips corbetti adults used for bioassay are obtained from a colony maintained continuously under laboratory conditions. For testing purposes, the test compound is diluted to a concentration of 300 ppm (wt compound: vol diluent) in a 1:1 mixture of acetone:water (vol:vol), plus 0.01% vol/vol Kinetic® surfactant.
Thrips potency of each compound is evaluated by using a floral-immersion technique. Plastic petri dishes are used as test arenas. All petals of individual, intact orchid flowers are dipped into treatment solution and allowed to dry. Treated flowers are placed into individual petri dishes along with 10-15 adult thrips. The petri dishes are then covered with lids. All test arenas are held under continuous light and a temperature of about 28° C. for duration of the assay. After 4 days, the numbers of live thrips are counted on each flower, and along inner walls of each petri dish. The level of thrips mortality is extrapolated from pre-treatment thrips numbers.

[12] = tested on: Red spider Mite (Tetranychus kanzawai); assay: Red spider mite test on sprayed cowpea beans; format: in vivo; details: 300 ppm, spray, after 72 h, in comparison with untreated controls
Procedure: B.6 Red spider Mite (Tetranychus kanzawai)
The active compound was dissolved at the desired concentration in a mixture of 1:1 (v/v) distilled water:acetone. A surfactant (Alkamuls® EL 620) was added at the rate of 0.1% (v/v).
Potted cowpea beans of 7-10 days of age were cleaned with tap water and sprayed with 5 ml of the test solution using air driven hand atomizer. The treated plants were allowed to air dry and afterwards inculated with 20 or more mites by clipping a cassava leaf section with known mite population. Treated plants were placed inside a holding room at about 25-27° C. and about 50-60% relatice humidity.
ortality by counting the live mites 72 HAT. Percent mortality was assessed after 72 h.

CN1CC2(C)CC23c2cccc4[nH]cc(c24)CC13 (stereo not drawn) [compound 1-1, cycloclavin]
cross reaction activity [1]: did not show cross reaction activity | mortality at 2500 ppm [2]: ≥ 75% | mortality at 300 ppm [3]: ≥ 75% | mortality at 300 ppm [4]: ≥ 75% | mortality at 10 ppm [5]: ≥ 60% | mortality at 300 ppm [6]: ≥ 75% | mortality at 300 ppm [7]: ≥ 75% | mortality at 300 ppm [8]: ≥ 75%

N-methylcarbamoyl-(1aR,3aR,9bR)-1a,2,3,3a,4,6-hexahydro-1a,3-dimethyl-1H-cycloprop[c]indolo[4,3-ef]indole [compound 1-2]
mortality [9]: at least 75% | mortality [10]: at least 75% | mortality [11]: at least 75% | mortality [12]: at least 75%
